Where two headings read alike, the source gives them in different places.
Assays:
[1] = test system: BRCA1 mRNA expression in MDA-MB-231 cells; test: qRT-PCR assay: BRCA1 mRNA expression in MDA-MB-231; type: cell-based, human; settings: median, read-out: RTqPCR-MDA-MB-231, IC50, BRCA1 (median)
How it was run: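 Cells were seeded at 200,000 cells/well, left 24 h, then exposed continuously to test substances for 24 h. Total RNA (600 ng) was reverse-transcribed to cDNA and amplified by qPCR, and transcript levels were normalised to GAPDH housekeeping expression.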

[2] = test system: MDA-MB-231, human breast cancer cells; test: Proliferation assay MDA-MB-231 (crystal violet, 4 days); type: cell-based; settings: MDA-MB-231 cells, median, read-out: Prolif-MDA MB-231, IC50-[mol/l] (median)
How it was run: (§1)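 Cells seeded at 4,000/well in medium with 10% FCS; after 24 h, compounds added at 0.01-10 µmol/L (0.1% DMSO) for 4 days. Glutaraldehyde-fixed, crystal violet-stained, absorbance at 595 nm normalized to zero-point plate (0%) and untreated cells (100%); IC50 by 4-parameter fit.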

[3] = test system: CAL-120, human breast adenocarcinoma cells; test: Proliferation assay CAL-120 (crystal violet, 4 days); type: cell-based; settings: CAL-120 cells, median, read-out: Prolif-CAL-120, IC50-[mol/l] (median)
How it was run: as §1

[4] = Homo sapiens, MDA-MB-231, Inhibition of BRCA1 mRNA expression in MDA-MB-231 cells
[5] = Inhibition of BRCA1 mRNA expression in MDA-MB-231 cells

Row | IC50 [1, 4] | IC50 ([2]; Homo sapiens, MDA-MB-231, 96 h) | IC50 ([3]; Homo sapiens, CAL-120, 96 h) | SMILES | other results
1 | 4.01 nM | 30 nM | 11.4 nM | Brc1cnn2c(NCc3nc4ccccc4[nH]3)nc(N3C[C@H]4CC[C@@H]3CO4)nc12 (single isomer, unassigned) [Example 383, N-[(1H-benzimidazol-2-yl)methyl]-8-bromo-2-{[1R or S-(1R*,4R*)]-2-oxa-5-azabicyclo[2.2.2]octan-5-yl}pyrazolo[1,5-a][1,3,5]triazin-4-amine] | –
2 | 1.3 nM | 2.45 nM | 2.35 nM | Cc1cc2nc(CNc3nc(N(C)CC(C)(C)O)nc4c(C5CC5)cnn34)[nH]c2cc1C [Example 321, 1-[(8-cyclopropyl-4-{[(5,6-dimethyl-1H-benzimidazol-2-yl)methyl]amino}pyrazolo[1,5-a][1,3,5]triazin-2-yl)(methyl)amino]-2-methylpropan-2-ol] | –
3 | 26.4 nM | 33.5 nM | 8.15 nM | CN1CCN(c2nc(NCc3nc4c(F)cccc4[nH]3)n3ncc(Cl)c3n2)CC1.O=CO [Example 362, formic acid 8-chloro-N-[(4-fluoro-1H-benzimidazol-2-yl)methyl]-2-(4-methylpiperazin-1-yl)pyrazolo[1,5-a][1,3,5]triazin-4-amine] | –
4 | – | – | – | Brc1cnn2c(NCc3nc4ccccc4[nH]3)nc(N3C[C@H]4CC[C@@H]3CN4)nc12 (single isomer, unassigned) [Example 335, N-[(1H-benzimidazol-2-yl)methyl]-8-bromo-2-{[1R or S-(1R*,4R*)]-2,5-diazabicyclo[2.2.2]octan-2-yl}pyrazolo[1,5-a][1,3,5]triazin-4-amine] | IC50 [1, 5]: 12.7 nM; IC50 [2]: 10.5 nM; IC50 [3]: 4.24 nM
5 | – | – | – | Brc1cnn2c(NCc3nc4ccccc4[nH]3)nc(N3C[C@H]4CC[C@@H]3CO4)nc12 (single isomer, unassigned; enantiomer 2) [Example 391, N-[(1H-benzimidazol-2-yl)methyl]-8-bromo-2-{[1R or S-(1R*,4R*)]-2-oxa-5-azabicyclo[2.2.2]octan-5-yl}pyrazolo[1,5-a][1,3,5]triazin-4-amine (Enantiomer 2)] | IC50 [1, 5]: 3.77 nM; IC50 [2]: 26.1 nM; IC50 [3]: 8.31 nM
6 | 13.3 nM | 74.5 nM | 39.1 nM | Cc1ccnc2[nH]c(CNc3nc(N4CCOCC4)nc4c(C(C)C)cnn34)nc12 [Example 28, N-[(7-methyl-3H-imidazo[4,5-b]pyridin-2-yl)methyl]-2-(morpholin-4-yl)-8-(propan-2-yl)pyrazolo[1,5-a][1,3,5]triazin-4-amine] | –
7 | 8.16 nM | 4.36 nM | 3.36 nM | Cc1cc2nc(CNc3nc(N4CCOCC4)nc4c(Br)cnn34)[nH]c2cc1C [Example 340, 8-bromo-N-[(5,6-dimethyl-1H-benzimidazol-2-yl)methyl]-2-(morpholin-4-yl)pyrazolo[1,5-a][1,3,5]triazin-4-amine] | –
8 | 13.7 nM | 13.7 nM | 4.35 nM | Brc1cnn2c(NCc3nc4ccccc4[nH]3)nc(N3CCN4CCC3C4)nc12 (stereo not drawn) [Example 350, N-[(1H-benzimidazol-2-yl)methyl]-8-bromo-2-(1,4-diazabicyclo[3.2.1]octan-4-yl)pyrazolo[1,5-a][1,3,5]triazin-4-amine] | –
9 | 31.6 nM | 43.8 nM | 25.9 nM | Fc1cccc(-c2nnc(CNc3nc(N4CCOCC4)nc4c(C(F)(F)F)cnn34)[nH]2)c1 [Example 385, N-{[5-(3-fluorophenyl)-4H-1,2,4-triazol-3-yl]methyl}-2-(morpholin-4-yl)-8-(trifluoromethyl)pyrazolo[1,5-a][1,3,5]triazin-4-amine] | –
10 | – | – | – | Fc1cc2nc(CNc3nc(N4CC5CCC(C4)N5)nc4c(Br)cnn34)[nH]c2cc1Cl [Example 348, 8-bromo-N-[(6-chloro-5-fluoro-1H-benzimidazol-2-yl)methyl]-2-(3,8-diazabicyclo[3.2.1]octan-3-yl)pyrazolo[1,5-a][1,3,5]triazin-4-amine] | IC50 ([1]; Homo sapiens, Inhibition of BRCA1 mRNA expression in MDA-MB-231 cells): 1.97 nM; IC50 ([2]; Homo sapiens, 96 h): 2 nM; IC50 ([3]; Homo sapiens, 96 h): 1.14 nM
11 | 1.91 nM | 2.84 nM | 1.82 nM | Cc1cc2nc(CNc3nc(N(C)CC(C)(C)O)nc4c(Br)cnn34)[nH]c2cc1C [Example 343, 1-[(8-bromo-4-{[(5,6-dimethyl-1H-benzimidazol-2-yl)methyl]amino}pyrazolo[1,5-a][1,3,5]triazin-2-yl)(methyl)amino]-2-methylpropan-2-ol] | –
12 | 9.02 nM | 23.2 nM | 6.73 nM | Fc1cccc2[nH]c(CNc3nc(N4CCOCC4)nc4c(Cl)cnn34)nc12 [Example 361, 8-chloro-N-[(4-fluoro-1H-benzimidazol-2-yl)methyl]-2-(morpholin-4-yl)pyrazolo[1,5-a][1,3,5]triazin-4-amine] | –
13 | 3.02 nM | 4.67 nM | 2.66 nM | CN1CCN(c2nc(NCc3nc4cc(F)c(F)cc4[nH]3)n3ncc(Br)c3n2)CC1 [Example 346, 8-bromo-N-[(5,6-difluoro-1H-benzimidazol-2-yl)methyl]-2-(4-methylpiperazin-1-yl)pyrazolo[1,5-a][1,3,5]triazin-4-amine] | –
14 | 2.34 nM | 4.82 nM | 2.7 nM | CN1CCN(c2nc(NCc3nc4cc(C(F)(F)F)ccc4[nH]3)n3ncc(Br)c3n2)CC1 [Example 344, 8-bromo-2-(4-methylpiperazin-1-yl)-N-{[5-(trifluoromethyl)-1H-benzimidazol-2-yl]methyl}pyrazolo[1,5-a][1,3,5]triazin-4-amine] | –
15 | 5.68 nM | 3.38 nM | 2.44 nM | CN1CCN(c2nc(NCc3nc4cc(Cl)c(Cl)cc4[nH]3)n3ncc(Br)c3n2)CC1 [Example 330, 8-bromo-N-[(5,6-dichloro-1H-benzimidazol-2-yl)methyl]-2-(4-methylpiperazin-1-yl)pyrazolo[1,5-a][1,3,5]triazin-4-amine] | –

Row | SMILES | IC50 [1, 4] | IC50 ([2]; Homo sapiens, MDA-MB-231, 96 h) | IC50 ([3]; Homo sapiens, CAL-120, 96 h) | other results
16 | FC(F)(F)c1ccc2[nH]c(CNc3nc(N4CC5CCC(C4)N5)nc4c(C5CC5)cnn34)nc2c1 [Example 327, 8-cyclopropyl-2-(3,8-diazabicyclo[3.2.1]octan-3-yl)-N-{[5-(trifluoromethyl)-1H-benzimidazol-2-yl]methyl}pyrazolo[1,5-a][1,3,5]triazin-4-amine] | 8.3 nM | 2.27 nM | 2.28 nM | –
17 | Fc1cc2nc(CNc3nc(N4CC5CCC(C4)N5)nc4c(C5CC5)cnn34)[nH]c2cc1F [Example 325, 8-cyclopropyl-2-(3,8-diazabicyclo[3.2.1]octan-3-yl)-N-[(5,6-difluoro-1H-benzimidazol-2-yl)methyl]pyrazolo[1,5-a][1,5]triazin-4-amine] | 3.91 nM | 3.22 nM | 1.48 nM | –
18 | Fc1cc2nc(CNc3nc(N4CC5CCC(C4)N5)nc4c(Br)cnn34)[nH]c2cc1F [Example 355, 8-bromo-2-(3,8-diazabicyclo[3.2.1]octan-3-yl)-N-[(5,6-difluoro-1H-benzimidazol-2-yl)methyl]pyrazolo[1,5-a][1,3,5]triazin-4-amine] | 1.41 nM | 3.2 nM | 2.2 nM | –
19 | Fc1c(Cl)ccc2[nH]c(CNc3nc(N4CC5CCC(C4)N5)nc4c(Br)cnn34)nc12 [Example 380, 8-bromo-N-[(5-chloro-4-fluoro-1H-benzimidazol-2-yl)methyl]-2-(3,8-diazabicyclo[3.2.1]octan-3-yl)pyrazolo[1,5-a][1,3,5]triazin-4-amine] | 1 nM | 2.19 nM | 1.72 nM | –

From patent US20230117034A1, “PYRAZOLOTRIAZINES” (Bayer Aktiengesellschaft, priority 2019, published 2023)
